Source: ChEMBL document CHEMBL2046335, “Synthesis and discovery of N-carbonylpyrrolidine- or N-sulfonylpyrrolidine-containing uracil derivatives as potent human deoxyuridine triphosphatase inhibitors” (J Med Chem, 2012)

How the values were obtained:
[1] = target: T1, Deoxyuridine 5'-triphosphate nucleotidohydrolase, mitochondrial (Homo sapiens, UniProt P33316); test: Inhibition of human dUTPase using [5-3H]dUTP as substrate after 15 mins by HPLC analysis
T1 sequence (P33316 whole entry): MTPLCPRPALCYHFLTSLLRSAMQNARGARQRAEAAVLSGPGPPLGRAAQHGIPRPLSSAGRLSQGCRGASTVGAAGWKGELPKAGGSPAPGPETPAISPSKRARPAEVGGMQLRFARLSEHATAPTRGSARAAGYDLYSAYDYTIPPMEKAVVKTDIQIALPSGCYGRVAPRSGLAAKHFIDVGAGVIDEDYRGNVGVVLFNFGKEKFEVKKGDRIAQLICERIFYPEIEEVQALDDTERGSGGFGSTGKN

[2] = target: T1, Deoxyuridine 5'-triphosphate nucleotidohydrolase, mitochondrial; test: Inhibition of human dUTPase
[3] = Antiproliferative activity against human HeLaS3 cells after 72 hrs by crystal violet assay; type: functional, cell-based; details: HeLa S3, 72 h
[4] = Potentiation of antiproliferative activity of FdUrd against human HeLaS3 cells assessed as reduction in FdUrd T/C value by half after 24 hrs by crystal violet assay; type: functional, cell-based; details: HeLa S3, 24 h
[5] = Competitive inhibition of Escherichia coli dUTPase

Row | Compound | IC50 [1] [nM] | also measured
1 | CC(C)(C)CC(C)(C)NC(=O)CCCn1ccc(=O)[nH]c1=O | 30000 | 
2 | O=C(CCCn1ccc(=O)[nH]c1=O)NC(c1ccccc1)c1ccccc1 | > 30000 | 
3 | CCC(CC)(CC)NC(=O)CCCn1ccc(=O)[nH]c1=O | > 30000 | 
4 | O=c1ccn([C@H]2C[C@H](O)[C@@H](COP(=O)(O)CP(=O)(O)OP(=O)(O)OCc3ccccc3)O2)c(=O)[nH]1 |  | Ki [2]: 300 nM
5 | O=C(CCCn1ccc(=O)[nH]c1=O)NCc1ccccc1 | > 30000 | 
6 | O=C(CCn1ccc(=O)[nH]c1=O)N(Cc1ccccc1)Cc1ccccc1 | > 30000 | 
7 | CC(C)(C)NC(=O)CCCn1ccc(=O)[nH]c1=O | 97000 | 
8 | CC(C)(NC(=O)CCCn1ccc(=O)[nH]c1=O)c1ccccc1 | > 30000 | 
9 | CCC(CC)(CC)NC(=O)CCn1ccc(=O)[nH]c1=O | 22000 | 
10 | O=C(CCn1ccc(=O)[nH]c1=O)NCCC(c1ccccc1)c1ccccc1 | > 30000 | 
11 | CC(C)(C)NC(=O)CCn1ccc(=O)[nH]c1=O | > 30000 | 
12 | O=C(CCn1ccc(=O)[nH]c1=O)NC(c1ccccc1)c1ccccc1 | > 30000 | 
13 | O=C(CCn1ccc(=O)[nH]c1=O)NCC(c1ccccc1)c1ccccc1 | > 30000 | 
14 | O=c1ccn([C@H]2C[C@H](O)[C@@H](COP(=O)(O)NP(=O)(O)OP(=O)(O)O)O2)c(=O)[nH]1 | 15000 | Ki [5]: 5000 nM
15 | CC(C)(CO)NC(=O)CCCn1ccc(=O)[nH]c1=O | > 30000 | 
16 | CC(C)(C)CC(C)(C)NC(=O)CCn1ccc(=O)[nH]c1=O | > 30000 | 
17 | CC(C)(Cc1ccc2ccccc2c1)NC(=O)CCCn1ccc(=O)[nH]c1=O | > 30000 | 
18 | CC(C)(Cc1ccccc1)NC(=O)CCCn1ccc(=O)[nH]c1=O | > 30000 | 
19 | O=C(CCCn1ccc(=O)[nH]c1=O)Nc1ccccc1 | > 30000 | 
20 | O=C(CCCn1ccc(=O)[nH]c1=O)NCC(c1ccccc1)c1ccccc1 | 16000 | 
21 | CN(CC(c1ccccc1)c1ccccc1)C(=O)CCCn1ccc(=O)[nH]c1=O | 1300 | EC50 [3]: > 100000 nM; EC50 [4]: 1200 nM
22 | CC(C)(CCc1ccccc1)NC(=O)CCCn1ccc(=O)[nH]c1=O | 21000 | 
23 | O=C(CCn1ccc(=O)[nH]c1=O)N1CCC(Cc2ccccc2)CC1 | > 30000 | 

Continued, in another order:

Row | IC50 [1] [nM] | Compound | also measured
24 | 350 | O=C(CCCn1ccc(=O)[nH]c1=O)N1CCC[C@H]1C(O)(c1cccc(F)c1)c1cccc(F)c1 | 
25 | 290 | O=C(CCCn1ccc(=O)[nH]c1=O)N1CCC[C@H]1C(O)(c1ccccc1)c1ccccc1 | EC50 [3]: > 100000 nM; EC50 [4]: 270 nM
26 | > 1000 | COc1ccc(C(O)(c2ccc(OC)cc2)[C@@H]2CCCN2C(=O)CCCn2ccc(=O)[nH]c2=O)cc1 | 
27 | > 1000 | O=C(CCCn1ccc(=O)[nH]c1=O)N1CCC[C@H]1C(O)(c1ccc(Cl)cc1)c1ccc(Cl)cc1 | 
28 | 280 | O=c1ccn(CCCS(=O)(=O)N2CCC[C@@H]2C(O)(c2cccc(F)c2)c2cccc(F)c2)c(=O)[nH]1 | 
29 | 7300 | CC(C)(NC(=O)CCn1ccc(=O)[nH]c1=O)C(O)(c1ccccc1)c1ccccc1 | 
30 | > 1000 | COc1ccccc1C(O)(c1ccccc1OC)[C@H]1CCCN1S(=O)(=O)CCCn1ccc(=O)[nH]c1=O | 
31 | 150 | O=C(CCCn1ccc(=O)[nH]c1=O)N1CCC[C@H]1C(c1ccccc1)c1ccccc1 | 
32 | 310 | O=c1ccn(CCCS(=O)(=O)N2CCC[C@@H]2C(O)(c2ccc(F)cc2)c2ccc(F)cc2)c(=O)[nH]1 | 
33 | 1100 | CN(CC(O)(c1ccccc1)c1ccccc1)C(=O)CCCn1ccc(=O)[nH]c1=O | 
34 | > 1000 | O=C(CCn1ccc(=O)[nH]c1=O)N1CCC[C@H]1C(O)(c1ccccc1)c1ccccc1 | 
35 | > 1000 | COc1cccc(C(O)(c2cccc(OC)c2)[C@H]2CCCN2S(=O)(=O)CCCn2ccc(=O)[nH]c2=O)c1 | 
36 | 9400 | O=c1ccn(CCCS(=O)(=O)N2CCC[C@H]2C(O)(c2ccccc2)c2ccccc2)c(=O)[nH]1 | 
37 | 230 | O=C(CCCn1ccc(=O)[nH]c1=O)N1CCC[C@H]1C(O)(c1cccc(-c2ccsc2)c1)c1cccc(-c2ccsc2)c1 | 
38 | 2500 | CC(C)(NC(=O)CCCn1ccc(=O)[nH]c1=O)C(O)(c1ccccc1)c1ccccc1 | EC50 [3]: > 100000 nM; EC50 [4]: 3000 nM
39 | 320 | O=c1ccn(CCCS(=O)(=O)N2CCC[C@@H]2C(O)(c2ccccc2)c2ccccc2)c(=O)[nH]1 | EC50 [3]: > 100000 nM; EC50 [4]: 300 nM
40 | > 1000 | COc1ccccc1C(O)(c1ccccc1OC)[C@@H]1CCCN1C(=O)CCCn1ccc(=O)[nH]c1=O | 
41 | 600 | O=C(CCCn1ccc(=O)[nH]c1=O)N1CCC[C@H]1C(O)(c1ccc(F)cc1)c1ccc(F)cc1 | 
42 | 580 | O=C(CCCn1ccc(=O)[nH]c1=O)N1CCC[C@H]1C(O)(c1cccc(Cl)c1)c1cccc(Cl)c1 | 
43 | > 1000 | COc1cccc(C(O)(c2cccc(OC)c2)[C@@H]2CCCN2C(=O)CCCn2ccc(=O)[nH]c2=O)c1 | 
44 | 10000 | O=C(CCCn1ccc(=O)[nH]c1=O)N1CCC[C@@H]1C(O)(c1ccccc1)c1ccccc1 | 
